Measured values published in US20230190717A1, “P38 GAMMA INHIBITORS AND METHOD OF USE THEREOF” (City of Hope, priority 2017, published 2023).
Like-named read-outs stand apart in the source and are kept apart here.

Columns and labels:
[1] = target: T1, human recombinant p38 α protein (Homo sapiens, UniProt Q16539); experiment: ADP-Glo in vitro kinase assay, p38α; type: biochemical
T1 construct: human recombinant p38 α, β, γ or δ protein (active full-length); purchased SignalChem; host or cells: baculovirus in Sf9 insect cells
T1 sequence (Q16539 whole entry): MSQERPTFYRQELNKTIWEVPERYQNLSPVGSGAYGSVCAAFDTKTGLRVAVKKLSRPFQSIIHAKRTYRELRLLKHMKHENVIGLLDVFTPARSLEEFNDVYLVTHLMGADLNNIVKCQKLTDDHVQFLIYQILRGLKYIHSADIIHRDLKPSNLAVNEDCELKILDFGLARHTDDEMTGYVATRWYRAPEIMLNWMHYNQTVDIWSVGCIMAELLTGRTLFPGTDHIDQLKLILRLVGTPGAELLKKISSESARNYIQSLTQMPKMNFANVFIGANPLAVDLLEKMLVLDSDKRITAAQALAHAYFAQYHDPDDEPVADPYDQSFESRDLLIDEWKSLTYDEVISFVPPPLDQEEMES
Method: (§1) Kinase assay in vitro: Kinase enzyme assays in vitro were performed using ADP-Glo kit (Promega, Wis.). The luminescent ADP-Glo kinase assay measures ADP produced from ATP consumption in a kinase enzyme reaction. All compounds have been tested and shown no inhibition to luciferase activities. Briefly, in this experiment, human recombinant p38 α, β, γ or δ protein (active full-length) expressed by baculovirus in sf9 insect cells (SignalChem, Vancouver, Canada) was homogenized in wells of white opaque 96-well microplates with the kinase buffer that consisted of 40 mM Tris-HCl (pH 7.5), 20 mM MgCl2, 0.1 mg/mL BSA and 50 μM DTT. […] Next, synthetic peptide substrates ([…]) were added to the mixture at final concentration of 0.2 μg/μL, followed by adding ATP at various concentrations. The 50 μL mixture was reacted at room temperature for 60 min. […]
(§2) In vitro kinase assay (ADP-GLO): We identified p38γ inhibitors using in vitro kinase assay by screening a library of kinase inhibitors: The library consists of 244 compounds on three plates (EMD Cat #539744, #539745, and #539746) that are mostly ATP mimics. […] IC50 values were determined using […] software (Biosoft, Cambridge, United Kingdom).

[2] = target: T2, p38β (Homo sapiens, UniProt Q15759); experiment: ADP-Glo in vitro kinase assay, p38β; type: biochemical
T2 construct: human recombinant p38 α, β, γ or δ protein (active full-length); purchased SignalChem; host or cells: baculovirus in Sf9 insect cells
T2 sequence (Q15759 whole entry): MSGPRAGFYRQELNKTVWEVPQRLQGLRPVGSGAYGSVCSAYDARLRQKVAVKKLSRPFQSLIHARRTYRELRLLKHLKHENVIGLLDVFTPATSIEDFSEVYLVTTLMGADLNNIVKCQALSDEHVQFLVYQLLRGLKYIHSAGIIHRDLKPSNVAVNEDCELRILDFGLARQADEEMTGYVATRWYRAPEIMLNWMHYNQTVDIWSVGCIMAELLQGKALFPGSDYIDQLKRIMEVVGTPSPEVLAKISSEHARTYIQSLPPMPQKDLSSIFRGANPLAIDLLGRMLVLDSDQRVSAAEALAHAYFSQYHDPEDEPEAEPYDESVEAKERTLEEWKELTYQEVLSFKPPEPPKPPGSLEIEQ
Method: as §1, §2

[3] = system: Hut78 cells; experiment: CellTiterGlo cell viability, Hut78; type: cell-based, human
Method: Viability assays using trypan blue exclusion and CellTiterGlo Cell Viability Assay: Cell viability was calculated by diluting cell suspensions 1:1 in 0.4% TRYPAN BLUE solution (Sigma, St. Louis, Mo.) and counting the number of viable cells using a TC20™ automated cell counter (Bio-Rad, Irvine, Calif.) that automatically excludes the number of non-viable cells stained with trypan blue per total cells. […] All data points are an average of triplicate experiments.
Absorbance was monitored at 490 nm using an automated BMG PHERAstar plate reader (BMG Labtech). […] All experiments are repeated in three independent experiments and data represented are the average of triplicate experiments.

[4] = system: normal CD4+ T cells from healthy donors; experiment: Cell viability, healthy CD4+ T cells; type: cell-based, human; conditions: 100 nM
Method: Compound, Samples, and Cell Culture: […] Isolation of PBMCs or CD4^+T cells from both patients and healthy donors and culture of CTCL cell lines (Hut78, HH, and H9) were performed as previously described.

[5] = system: phosphorylation of DLGH1 at Ser158; experiment: Western blot of pDLGH1-Ser158 in CTCL cells; type: cell-based, human; conditions: SS cells, Hut78 and H9 cells; 50-100 nM
Method: Western blot: Western blots were performed as described previously [5]. Rabbit primary antibodies (Cell Signaling Technology (CST), Danvers, Mass.) were used at the following dilutions: anti-p38α, -p38β, -p38γ, and -p38δ (1:1000), anti-B-tubulin (1:2000), anti-p38 GAPDH 1:1000. […] For detection of p38γ protein level in SS patient samples we used a monoclonal antibody that close to N-terminus of human p38γ MAPK (SAPK3) from Abcam ((ab205926).

[6] = system: H3K27 acetylation; experiment: Immunofluorescence confocal microscopy of H3K27 acetylation; type: cell-based, human; conditions: 800 nM, 10 hr
Method: Immunofluorescence Confocal microscopy: Hut 78 Cells were cytospun unto the slides and fixed with 3.8% paraformaldehyde for 30 min at room temperature (RT) and then permeabilized with 0.25% Triton X-100 in PBS, for 10 min at RT. The cells were washed twice with PBS and blocked in 3% BSA in PBS for 1 h at RT. […] Coverslips were permanently mounted with DAPI (life Technologies) for nuclear staining. Observations were carried out using a confocal laser scanning microscope (zeiss LSM 700). Primary antibodies were used at the following dilutions: anti-ß-tubulin (1:200), H3K27 ac (CST, dilution 1:500), p-p38 (CST, dilution 1:500), DLGH1 (abcam) 1:1000.

[7] = system: HH cells; experiment: HH cell proliferation (cell number); type: cell-based, human; conditions: 100 nM and 300 nM, four days
[8] = system: Hut78 xenografts; conditions: for tumor growth: intraperitoneal, vs vehicle
Method: Female and male 6-week-old NSG mice (NOD-scid IL2Rγ null) were purchased from Jackson Laboratory (Sacramento, Calif.). Hut78 cells were used for developing CTCL xenograft tumors. Briefly, 5 million cells in 100 μL (50% Matrigel/50% PBS) were injected subcutaneously into the right flank of each mouse, and tumor development was monitored every other day. Once the tumors are were palpable and reached 100 mm^3 in volume, treatment was commenced. […] Mice were treated every two days via intraperitoneal injection. Tumors were measured twice per week using calipers.

[9] = target: T3, p38δ (Homo sapiens, UniProt O15264); experiment: Radiometric in vitro kinase assay (SignalChem), p38 δ; type: biochemical; design: purchased SignalChem (assay service); conditions: 50 nM
T3 sequence (O15264 1-365): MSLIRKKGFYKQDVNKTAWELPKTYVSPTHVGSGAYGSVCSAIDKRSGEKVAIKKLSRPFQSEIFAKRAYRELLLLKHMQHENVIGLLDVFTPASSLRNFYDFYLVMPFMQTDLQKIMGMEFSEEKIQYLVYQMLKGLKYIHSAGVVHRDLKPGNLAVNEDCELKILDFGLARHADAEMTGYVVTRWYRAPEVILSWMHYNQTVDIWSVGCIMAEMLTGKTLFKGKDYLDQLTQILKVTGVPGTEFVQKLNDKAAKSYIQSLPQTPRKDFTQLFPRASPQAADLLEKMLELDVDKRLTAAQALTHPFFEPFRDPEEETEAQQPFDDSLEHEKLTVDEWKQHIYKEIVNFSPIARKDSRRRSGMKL
Method: (§3) Radiometric in vitro kinase assay: Radiometric in vitro kinase assay was performed by [sequence]

[10] = target: T4, p38 γ (Homo sapiens, UniProt P53778); experiment: Radiometric in vitro kinase assay (SignalChem), p38 γ; type: biochemical; design: purchased SignalChem (assay service); conditions: 200 nM
T4 sequence (P53778 1-367): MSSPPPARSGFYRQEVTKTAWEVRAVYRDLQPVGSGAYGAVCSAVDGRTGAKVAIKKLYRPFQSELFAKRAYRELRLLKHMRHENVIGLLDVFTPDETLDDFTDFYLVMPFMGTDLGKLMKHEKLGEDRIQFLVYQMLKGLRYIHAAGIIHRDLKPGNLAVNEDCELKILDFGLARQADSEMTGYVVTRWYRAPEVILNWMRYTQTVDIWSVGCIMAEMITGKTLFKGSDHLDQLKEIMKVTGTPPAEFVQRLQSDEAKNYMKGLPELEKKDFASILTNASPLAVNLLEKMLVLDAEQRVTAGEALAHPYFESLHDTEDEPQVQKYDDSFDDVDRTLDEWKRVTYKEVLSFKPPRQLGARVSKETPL
Method: as §3

[11] = target: T3, p38δ; experiment: ADP-Glo in vitro kinase assay, p38δ; type: biochemical; design: human recombinant p38 α, β, γ or δ protein (active full-length); purchased SignalChem; host or cells: baculovirus in Sf9 insect cells
Method: as §1, §2

Cc1ccc([N+](=O)[O-])cc1S(=O)(=O)N(C)/N=C/c1cnc2ccc(Br)cn12 [Compound 1]
dose-dependent inhibition of kinase activity [1]: not
dose-dependent inhibition of kinase activity [2]: not
cell viability ([3]; Hut78, 100 nM): significantly reduced viability
effect on viability of Hut78 cells ([3]; varying concentrations, 72 hr): dose-dependent inhibition of cell viability
cell viability [4]: spared
phosphorylation of DLGH1 at Ser158 [5]: inhibited phosphorylation of DLGH1 at Ser158
H3K27 acetylation [6]: blocked H3K27 acetylation
proliferation of HH cells [7]: sufficiently reduced proliferation
tumor growth ([8]; 2 mg/kg): statistically significant inhibition of tumor growth
tumor growth ([8]; 10 mg/kg): further significant reduction of tumor size
tumor growth ([8]; 10 mg/kg, listed as F7/PIK75): significantly inhibited tumor growth
toxic effects in animal studies ([8]; mouse, in vivo): did not observe any toxic effects
inhibition at 0.05 µM [9]: 5.4%
inhibition at 0.2 µM [10]: 59%
IC50 [11]: 32.1 to 120 nM
